Measured values taken from the NIST ThermoML archive (doi:10.1016/j.jct.2009.08.017).
± gives the expanded uncertainty stated by the source.

Tests used:
[1] = Molar enthalpy of transition or fusion; details: Crystal; DSC
[2] = Crystal; DTA

Molar enthalpy of transition or fusion [1]: 28.3 ± 0.84 kJ/mol
Normal melting temperature [2]: 80.00 ± 0.5 °C
SMILES: Clc1ccc(C(c2ccccc2Cl)C(Cl)Cl)cc1 (configuration not stated) [1,1-dichloro-2-(2-chlorophenyl)-2-(4-chlorophenyl)ethane]
